In brackets after ≈: the same amount, converted by molar mass.
Key:
[1] = tested on: HL-60(TB); experiment: Growth inhibition of human HL-60(TB) cells assessed as cell growth at 10 uM incubated for 48 hrs by sulforhodamine B assay relative to control; assay type: functional; settings: HL-60, 48 h, read-out: Activity
[2] = tested on: K562; experiment: Growth inhibition of human K562 cells assessed as cell growth at 10 uM incubated for 48 hrs by sulforhodamine B assay relative to control; assay type: functional; settings: K562, 48 h, read-out: Activity
[3] = tested on: RPMI-8226; experiment: Growth inhibition of human RPMI8226 cells assessed as cell growth at 10 uM incubated for 48 hrs by sulforhodamine B assay relative to control; assay type: functional; settings: RPMI-8226, 48 h, read-out: Activity
[4] = tested on: SR; experiment: Growth inhibition of human SR cells assessed as cell growth at 10 uM incubated for 48 hrs by sulforhodamine B assay relative to control; assay type: functional; settings: read-out: Activity
[5] = tested on: A549; experiment: Growth inhibition of human A549/ATCC cells assessed as cell growth at 10 uM incubated for 48 hrs by sulforhodamine B assay relative to control; assay type: functional; settings: A549, 48 h, read-out: Activity
[6] = tested on: EKVX; experiment: Growth inhibition of human EKVX cells assessed as cell growth at 10 uM incubated for 48 hrs by sulforhodamine B assay relative to control; assay type: functional; settings: read-out: Activity
[7] = tested on: NCI-H322M; experiment: Growth inhibition of human NCI-H322M cells assessed as cell growth at 10 uM incubated for 48 hrs by sulforhodamine B assay relative to control; assay type: functional; settings: read-out: Activity
[8] = tested on: NCI-H460; experiment: Growth inhibition of human NCI-H460 cells assessed as cell growth at 10 uM incubated for 48 hrs by sulforhodamine B assay relative to control; assay type: functional; settings: NCI-H460, 48 h, read-out: Activity
[9] = tested on: HCT-15; experiment: Growth inhibition of human HCT15 cells assessed as cell growth at 10 uM incubated for 48 hrs by sulforhodamine B assay relative to control; assay type: functional; settings: HCT-15, 48 h, read-out: Activity
[10] = tested on: KM12; experiment: Growth inhibition of human KM12 cells assessed as cell growth at 10 uM incubated for 48 hrs by sulforhodamine B assay relative to control; assay type: functional; settings: KM12, 48 h, read-out: Activity
[11] = tested on: SW-620; experiment: Growth inhibition of human SW620 cells assessed as cell growth at 10 uM incubated for 48 hrs by sulforhodamine B assay relative to control; assay type: functional; settings: SW-620, 48 h, read-out: Activity
[12] = tested on: SF-295; experiment: Growth inhibition of human SF295 cells assessed as cell growth at 10 uM incubated for 48 hrs by sulforhodamine B assay relative to control; assay type: functional; settings: SF-295, 48 h, read-out: Activity
[13] = tested on: SNB-19; experiment: Growth inhibition of human SNB19 cells assessed as cell growth at 10 uM incubated for 48 hrs by sulforhodamine B assay relative to control; assay type: functional; settings: SNB-19, 48 h, read-out: Activity
[14] = tested on: U-251; experiment: Growth inhibition of human U251 cells assessed as cell growth at 10 uM incubated for 48 hrs by sulforhodamine B assay relative to control; assay type: functional; settings: U-251, 48 h, read-out: Activity
[15] = tested on: LOX IMVI; experiment: Growth inhibition of human LOXIMVI cells assessed as cell growth at 10 uM incubated for 48 hrs by sulforhodamine B assay relative to control; assay type: functional; settings: read-out: Activity
[16] = tested on: SK-MEL-2; experiment: Growth inhibition of human SK-MEL-2 cells assessed as cell growth at 10 uM incubated for 48 hrs by sulforhodamine B assay relative to control; assay type: functional; settings: SK-MEL-2, 48 h, read-out: Activity
[17] = tested on: SK-MEL-28; experiment: Growth inhibition of human SK-MEL-28 cells assessed as cell growth at 10 uM incubated for 48 hrs by sulforhodamine B assay relative to control; assay type: functional; settings: SK-MEL-28, 48 h, read-out: Activity
[18] = tested on: OVCAR-3; experiment: Growth inhibition of human OVCAR3 cells assessed as cell growth at 10 uM incubated for 48 hrs by sulforhodamine B assay relative to control; assay type: functional; settings: OVCAR-3, 48 h, read-out: Activity
[19] = tested on: SK-OV-3; experiment: Growth inhibition of human SKOV3 cells assessed as cell growth at 10 uM incubated for 48 hrs by sulforhodamine B assay relative to control; assay type: functional; settings: SK-OV-3, 48 h, read-out: Activity
[20] = tested on: 786-0; experiment: Growth inhibition of human 786-0 cells assessed as cell growth at 10 uM incubated for 48 hrs by sulforhodamine B assay relative to control; assay type: functional; settings: 786-0, 48 h, read-out: Activity
[21] = tested on: CAKI-1; experiment: Growth inhibition of human Caki1 cells assessed as cell growth at 10 uM incubated for 48 hrs by sulforhodamine B assay relative to control; assay type: functional; settings: CAKI-1, 48 h, read-out: Activity
[22] = tested on: SN12C; experiment: Growth inhibition of human SN12C cells assessed as cell growth at 10 uM incubated for 48 hrs by sulforhodamine B assay relative to control; assay type: functional; settings: read-out: Activity
[23] = tested on: TK-10; experiment: Growth inhibition of human TK10 cells assessed as cell growth at 10 uM incubated for 48 hrs by sulforhodamine B assay relative to control; assay type: functional; settings: TK-10, 48 h, read-out: Activity
[24] = tested on: MCF7; experiment: Growth inhibition of human MCF7 cells assessed as cell growth at 10 uM incubated for 48 hrs by sulforhodamine B assay relative to control; assay type: functional; settings: MCF7, 48 h, read-out: Activity
[25] = tested on: UACC-257; experiment: Growth inhibition of human UACC257 cells assessed as cell growth at 10 uM incubated for 48 hrs by sulforhodamine B assay relative to control; assay type: functional; settings: UACC-257, 48 h, read-out: Activity
[26] = tested on: IGROV-1; experiment: Growth inhibition of human IGROV1 cells assessed as cell growth at 10 uM incubated for 48 hrs by sulforhodamine B assay relative to control; assay type: functional; settings: IGROV-1, 48 h, read-out: Activity
[27] = tested on: SR; experiment: Growth inhibition of human SR cells incubated for 48 hrs by sulforhodamine B assay; assay type: functional
[28] = tested on: NCI-H322M; experiment: Growth inhibition of human NCI-H322M cells incubated for 48 hrs by sulforhodamine B assay; assay type: functional
[29] = tested on: NCI/ADR-RES; experiment: Growth inhibition of human NCI/ADR-RES cells incubated for 48 hrs by sulforhodamine B assay; assay type: functional
[30] = tested on: MCF7; experiment: Growth inhibition of human MCF7 cells incubated for 48 hrs by sulforhodamine B assay; assay type: functional; settings: MCF7, 48 h
[31] = tested on: U-937; experiment: Cytotoxicity against human U937 cells after 72 hrs by MTT assay; assay type: functional; settings: U-937, 72 h, read-out: LC50 (the source's name)
[32] = tested on: Plasmodium falciparum; experiment: Antimalarial activity against chloroquine-sensitive Plasmodium falciparum 3D7 incubated for 48 hrs by malstat reagent based LDH release assay; assay type: functional, organism-based; settings: 3D7, 48 h
[33] = tested on: Trypanosoma cruzi; experiment: Antitrypanosomal activity against Trypanosoma cruzi Tulahuen amastigote forms infected in human U937 cells after 72 hrs by beta-galactosidase reporter gene assay; assay type: functional, organism-based; settings: U-937, 72 h
[34] = tested on: Leishmania panamensis; experiment: Antileishmanial activity against EpiR/GFP fused Leishmania panamensis MHOM/CO/87/UA140 intracellular amastigotes infected in human […] cells after 72 hrs by flow cytometric method; assay type: functional, organism-based; settings: MHOM/CO/87/UA140, 72 h
[35] = read-out: LC50 (the source's name)

Compound | growth at 10 µM [1] [%] | growth at 10 µM [2] [%] | growth at 10 µM [3] [%] | growth at 10 µM [4] [%] | growth at 10 µM [5] [%] | growth at 10 µM [6] [%] | growth at 10 µM [7] [%] | growth at 10 µM [8] [%] | growth at 10 µM [9] [%] | growth at 10 µM [10] [%] | growth at 10 µM [11] [%] | growth at 10 µM [12] [%] | growth at 10 µM [13] [%] | growth at 10 µM [14] [%] | growth at 10 µM [15] [%] | growth at 10 µM [16] [%] | growth at 10 µM [17] [%] | growth at 10 µM [18] [%] | growth at 10 µM [19] [%] | growth at 10 µM [20] [%] | further results
CCCCOc1nc2ccccc2cc1C1CNC(=O)c2ccccc2N1 (stereo not drawn) | -8.72 | 12.8 | 25.6 | 19.8 | 19.9 | 33 | 47.2 | 6.89 | 15.3 | 23.9 | 20.9 | -5.68 | 33.4 | 18.6 | 27.1 | 15.7 | 45.8 | -9.73 | 14.8 | 26.2 | growth at 10 µM [21]: 42.6%; growth at 10 µM [22]: 44.1%; growth at 10 µM [23]: 34.3%; growth at 10 µM [24]: 21.2%; growth at 10 µM [25]: 57.2%; growth at 10 µM [26]: 38%; GI50 [27]: 1.26 µM; LC50 [27]: > 100 µM; TGI [27]: 10.7 µM; GI50 [28]: 4.5 µM; TGI [28]: 45.5 µM; CC50 [28, 35]: > 100 µM; GI50 [29]: 1.74 µM; TGI [29]: 6.7 µM; CC50 [29, 35]: 97 µM; GI50 [30]: 1.73 µM; TGI [30]: 16.1 µM; CC50 [30, 35]: > 100 µM
O=C1NCC(c2cc3ccc(Cl)cc3[nH]c2=O)Nc2ccccc21 (stereo not drawn) | 111 | 124 | 119 | 115 | 73.9 | 95.2 | 98 | 104 | 103 | 103 | 107 | 107 | 108 | 88.9 | 96.3 | 103 | 105 | 109 | 77.8 | 99.7 | growth at 10 µM [21]: 101%; growth at 10 µM [22]: 111%; growth at 10 µM [23]: 83%; growth at 10 µM [24]: 97.4%; growth at 10 µM [25]: 78.4%; growth at 10 µM [26]: 96.5%; CC50 [31]: > 200 µg/mL; EC50 [32]: 59.3 µg/mL (≈ 175 µM); EC50 [33]: 86 µg/mL (≈ 253 µM); EC50 [34]: 77.9 µg/mL (≈ 229 µM)

Source: ChEMBL document CHEMBL4138146, “A Schmidt rearrangement-mediated synthesis of novel tetrahydro-benzo[1,4]diazepin-5-ones as potential anticancer and antiprotozoal agents” (Eur J Med Chem, 2017)
